For one data set, the system named is P. vulgaris A21559. The data set can be described thus: M.I.C., tube dilution. The format is cell-based. As to conditions: Nutrient Broth.
Another data set deals with S. aureus A-9606. The data set can be described thus: Protective effect in intramuscular treatment of infected mice. The format is in vivo. As to conditions: Staphylococcus aureus, A9606, im, read-out: PD50/treatment.
The subject of the next data set is P. aeruginosa A24081. The data set is described as above. The conditions noted are these: Pseudomonas aeruginosa, im; mice, i.m.; P. aeruginosa A24081; read-out: PD50/treatment. The format is in vivo.
For data set [1], the system named is S. aureus A15097 (Meth-res.). The data set can be described thus: M.I.C., tube dilution. It is filed as cell-based. As to conditions: Staphylococcus aureus, overnight incubation at 37° C.
For data set [2], the system named is P. aeruginosa A-9843a. The data set can be described thus: animal or person. It is filed as in vivo, mice.
Protocol: (§1) The PD50 (dose in mg/kg required to give protection to 50% of the infected mice) is indicated.
with drugs 0 and 2 hours postinfection.
(§2) The PD50 (dose in mg/kg) required to give protection to 50% of the infected mice is indicated.
In a further data set the test system is B. fragilis A22862. The data set can be described thus: M.I.C., tube dilution. It is filed as cell-based. As to conditions: Bacteroides fragilis, overnight incubation at 37° C., Nutrient Broth.
Another data set concerns K. pneumoniae A9664. The data set can be described thus: Protective effect in intramuscular treatment of infected mice. It is filed as in vivo. The conditions noted are these: Klebsiella pneumoniae, im, K. pneumoniae A9664, read-out: PD50/treatment.
In data set [3] the test system is P. mirabilis A-9900. Described as above. The format is in vivo. As to conditions: Proteus mirabilis, im; mice, i.m.; P. mirabilis A9900; read-out: PD50/treatment.
Protocol: as §1
with drugs 0 and 2 hours postinfection.
as §2
In a further data set the test system is E. coli A-15119. The data set is described as above. It is filed as in vivo. The conditions noted are these: Escherichia coli, A15119, im, read-out: PD50/treatment.
The nature of data set [4]: Blood levels in mice after intramuscular administration.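 Also: compounds dissolved in 0.1 M phosphate buffer at pH 7, data from one experiment using four mice for each compound.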
Description: Compounds were solubilized in 0.1 M phosphate buffer pH 7.
a single test; 4 mice used per compound.
Compounds were solubilized in 0.1 M phosphate buffer, pH 7.
on a single test; 4 mice per compound.
Another data set deals with S. faecalis A20688. The data set can be described thus: M.I.C., tube dilution. The format is cell-based. As to conditions: overnight incubation at 37° C., Nutrient Broth.
The test system of data set [5] is P. aeruginosa A-9843A. The data set can be described thus: M.I.C., tube dilution. The format is cell-based. The conditions noted are these: overnight incubation at 37° C., Nutrient Broth; listed as Ex. 15 "B".
The next data set concerns P. morganii A15153. The data set can be described thus: M.I.C., tube dilution. The format is cell-based. As to conditions: printed M. morganii A15153; overnight incubation at 37° C.; listed as Ex. 15 "B".
For a further data set, the system named is E. coli A20341-1. The data set can be described thus: M.I.C., tube dilution. The format is cell-based. As to conditions: overnight incubation at 37° C., Nutrient Broth; listed as Ex. 15 "B".
The test system of the next data set is S. aureus A-9537. The data set can be described thus: M.I.C., tube dilution. The format is cell-based. As to conditions: listed as Ex. 15 "B".
A further data set deals with E. coli A15119. The data set can be described thus: M.I.C., tube dilution. The format is cell-based. As to conditions: overnight incubation at 37° C., Nutrient Broth; listed as Ex. 15 "B".
The subject of the next data set is S. pneumoniae A-9585. The data set can be described thus: M.I.C., tube dilution. The format is cell-based. The conditions noted are these: overnight incubation at 37° C., Nutrient Broth.
The subject of another data set is K. pneumoniae A-9664. The data set can be described thus: M.I.C., tube dilution. The format is cell-based. As to conditions: overnight incubation at 37° C., Nutrient Broth.
The subject of a further data set is S. pyogenes A-9604. The data set can be described thus: M.I.C., tube dilution. The format is cell-based. The conditions noted are these: overnight incubation at 37° C., Nutrient Broth; listed as Ex. 15 "B".
Data set [6] concerns P. mirabilis A-9900. The data set can be described thus: M.I.C., tube dilution. As to conditions: overnight incubation at 37° C., Nutrient Broth. It is filed as cell-based.
The next data set deals with P. rettgeri A22424. The data set can be described thus: M.I.C., tube dilution. The format is cell-based. As to conditions: overnight incubation at 37° C., Nutrient Broth; listed as Ex. 15 "B".
In a further data set the test system is P. aeruginosa A21213. The data set can be described thus: M.I.C., tube dilution. The conditions noted are these: overnight incubation at 37° C., Nutrient Broth; listed as Ex. 15 "B". It is filed as cell-based.
The subject of data set [7] is S. aureus A-9606 (Pen-res.). The data set can be described thus: M.I.C., tube dilution. It is filed as cell-based. The conditions noted are these: overnight incubation at 37° C., listed as Ex. 15 "B".
Another data set relates to K. pneumoniae A20468. The data set can be described thus: M.I.C., tube dilution. It is filed as cell-based. As to conditions: overnight incubation at 37° C., Nutrient Broth; listed as Ex. 15 "B".
The test system of the next data set is E. cloacae A-9656. The data set can be described thus: M.I.C., tube dilution. The format is cell-based. The conditions noted are these: overnight incubation at 37° C., Nutrient Broth.
The next data set relates to E. cloacae A-9659. The data set can be described thus: M.I.C., tube dilution. It is filed as cell-based. The conditions noted are these: overnight incubation at 37° C., Nutrient Broth; listed as Ex. 15 "B".
A further data set concerns S. marcescens A20019. The data set can be described thus: M.I.C., tube dilution. The format is cell-based. As to conditions: overnight incubation at 37° C., Nutrient Broth; listed as Ex. 15 "B".
[8] abbreviates: mice, 20 mg/kg i.m. (table 9), 20 mg/kg.

Values after ≈ are worked out from the molar mass of the structure shown. Read-outs that look alike come from different tables or passages of the source.

Protocol for E. coli A-15119: as §1
with drugs 0 and 2 hours postinfection.
as §2
Description for K. pneumoniae A9664: as §2
Description for P. aeruginosa A24081: as §2

By MIC is commonly meant the smallest concentration in the dilution series that meets the test's criterion for growth inhibition. By AUC is commonly meant concentration integrated over time. Lower therefore signals low exposure. By Cmax is commonly meant the peak of the concentration-time curve. One may read the half-life as the time needed for the level to fall by half in the phase considered. In the case of `Cc1ccc[n+](C)c1CSC1=C(C(=O)[O-])N2C(=O)[C@H]([C@@H](C)O)[C@H]2C1` [Example 7, 3-(N-Methyl-3-methylpyridine-2-methanethio)-6α-[1-(R)-hydroxyethyl]-7-oxo-1-azabicyclo(3.2.0)hept-2-ene-2-carboxylate], the MIC in the data set with P. vulgaris A21559 (Proteus vulgaris, A21559, overnight incubation at 37° C., read-out: MIC) worked out at 0.008 µg/mL (≈ 0.023 µM); in [1], 2 µg/mL (≈ 5.74 µM); against B. fragilis A22862, 0.016 µg/mL (≈ 0.0459 µM). Besides, the ED50 in the data set with S. aureus A-9606 worked out at 0.2 mg/kg; in the data set with P. aeruginosa A24081 it was 0.1 mg/kg; in the data set with P. aeruginosa A-9843a [2] (Pseudomonas aeruginosa, A9843A, in Mus musculus, im, read-out: PD50/treatment) it was 0.2 mg/kg; in the data set on K. pneumoniae A9664, 1 mg/kg; in the data set with P. mirabilis A-9900 [3], 2.4 mg/kg; in the data set with E. coli A-15119 it was 0.2 mg/kg. The compound further had an AUC in data set [4] (mouse, blood, im, 20 mg/kg) of 11800 ng·h/mL. In [4] (mouse, blood, im, 20 mg/kg), the Cmax came to 19200 ng/mL. The half-life in [4] (mouse, blood, im, 20 mg/kg) was found to be 11 min.
Take `C[C@@H](O)C1C(=O)N2C(C(=O)[O-])=C(SCc3cn(C)n[n+]3C)CC12` (stereo partly drawn) [Example 15 "B", 3-[4-(N,N-dimethyl-1,2,3-triazolium)methylthio]-6α-[1-(R)-hydroxyethyl]-7-oxo-1-azabicyclo(3.2.0)hept-2-ene-2-carboxylate]: the MIC against P. vulgaris A21559 (overnight incubation at 37° C., listed as Ex. 15 "B") amounted to 0.008 µg/mL (≈ 0.0236 µM); against S. faecalis A20688, 0.5 µg/mL (≈ 1.48 µM); against P. aeruginosa A-9843A [5], 2 µg/mL (≈ 5.91 µM); against P. morganii A15153, 0.06 µg/mL (≈ 0.177 µM); against E. coli A20341-1, 0.008 µg/mL (≈ 0.0236 µM); with S. aureus A-9537 (+50% serum), 0.016 µg/mL (≈ 0.0473 µM). Also, the MIC with S. aureus A-9537 (overnight incubation at 37° C., Nutrient Broth) came to 0.004 µg/mL (≈ 0.0118 µM); with E. coli A15119, 0.008 µg/mL (≈ 0.0236 µM); in the data set with S. pneumoniae A-9585, 0.0005 µg/mL (≈ 0.00148 µM); in the data set with K. pneumoniae A-9664, 0.03 µg/mL (≈ 0.0887 µM); against S. pyogenes A-9604, 0.001 µg/mL (≈ 0.00296 µM); against P. mirabilis A-9900 [6], 0.03 µg/mL (≈ 0.0887 µM). For the same compound, the MIC is 0.13 µg/mL (≈ 0.384 µM) against P. rettgeri A22424; 0.13 µg/mL (≈ 0.384 µM) in the data set on P. aeruginosa A21213; 0.008 µg/mL (≈ 0.0236 µM) in [7]; 0.016 µg/mL (≈ 0.0473 µM) with K. pneumoniae A20468; 0.03 µg/mL (≈ 0.0887 µM) against E. cloacae A-9656; 0.016 µg/mL (≈ 0.0473 µM) in the data set with E. cloacae A-9659. In the data set on S. marcescens A20019, this compound showed an MIC of 0.016 µg/mL (≈ 0.0473 µM). In addition, in the data set with P. aeruginosa A-9843a [2] (mice, i.m., P. aeruginosa A9843A), the PD50/treatment came to 0.89 mg/kg. Besides, the T1/2 in data set [4] (mice, 20 mg/kg i.m. (table 9)) came out at 10 min. This compound also gave an area under the curve (AUC) in data set [4] (setting [8]) of 7400 ng·h/mL. Also, the peak concentration (Cmax) in [4] (setting [8]) came out at 15900 ng/mL.

The values are drawn from patent publication US4732977A, “Carbapenem antibiotics” (priority 1986, dated 1988).
